How the values were obtained:
CDK12/CyclinK = molecular target: T1, CDK12/CyclinK (Homo sapiens, UniProt Q9NYV4); experiment: CDK12/CycK high ATP kinase assay (TR-FRET); type: biochemical; settings: 2 mM ATP (high ATP); median; read-out: CDK12/CyclinK, 2 mM ATP (high ATP), IC50 - [mol/l] (median)
T1 construct: His-CDK12 (aa Q696-S1082); made in house; host or cells: Hi-5 insect cells (baculovirus co-infection with CycK and yeast CAK1)
Procedure, shortened: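 Human His-tagged CDK12/CycK (about 0.75 nM) preincubated with compound 15 min, then reacted 60 min at 22 °C with 2 mM ATP and 1 µM biotinylated peptide in HEPES pH 7.5 buffer. Phospho-Ser62 c-Myc epitope detected by TR-FRET (665/620 nm ratio); data normalised to no-inhibitor and no-enzyme controls.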

[1] = tested on: BRCA1 mRNA expression in MDA-MB-231 cells; experiment: qRT-PCR assay: inhibition of BRCA1 mRNA expression in MDA-MB-231 cells; type: cell-based, human; settings: Homo sapiens, MDA-MB-231, 24 h, 24 h exposure, BRCA1 mRNA normalised to GAPDH, median, read-out: RTqPCR-MDA-MB-231 IC50 [mol/l] BRCA1 (median)
Experimental: 3. qRT-PCR Assay: BRCA1, ATR, MCL1 in MDA-MB-231, CAL-120
Tissue cultured human MDA-MB-231 human breast cancer cells were plated in 500 microL per well at 200,000 cells/well in a 24 well microtiter plate. After 24 h, the cells were exposed continuously for 24 h to test substances (substances were added with Tecan HP D300 Dispenser). RNA was prepared using Qiagen RNeasy MiniKit (#74106), RNA was quantified using a NanoDrop Equipment, and 600 nano gamms of RNA was coverted to cDNA using a SuperScript VILO kit (Thermofisher #11755050) followed by qPCR amplification. BRCA1 and ATR gene expression was measured by RT-qPCR and normalised to GAPDH housekeeping gene expression. qPCR primer sets have been purchased from Thermo Fisher Scientific/Applied Biosystems: BRCA1, # Hs 01556193; ATR, #Hs 00992123; GAPDH, #Hs 03929097.

CDK12 = molecular target: T2, CDK12 (Homo sapiens, UniProt Q9NYV4); experiment: CDK12 protein level in CAL-120 cells (Protein Simple); type: cell-based; settings: 18 h, CDK12/HSP90 peak area ratio, median, read-out: CDK12 protein level in CAL-120 breast ca cells DC50 - [mol/l] (median)
T2 construct: endogenous in cells; host or cells: CAL-120 human breast cancer cells (DSMZ ACC 459)
T2 sequence (Q9NYV4 whole entry): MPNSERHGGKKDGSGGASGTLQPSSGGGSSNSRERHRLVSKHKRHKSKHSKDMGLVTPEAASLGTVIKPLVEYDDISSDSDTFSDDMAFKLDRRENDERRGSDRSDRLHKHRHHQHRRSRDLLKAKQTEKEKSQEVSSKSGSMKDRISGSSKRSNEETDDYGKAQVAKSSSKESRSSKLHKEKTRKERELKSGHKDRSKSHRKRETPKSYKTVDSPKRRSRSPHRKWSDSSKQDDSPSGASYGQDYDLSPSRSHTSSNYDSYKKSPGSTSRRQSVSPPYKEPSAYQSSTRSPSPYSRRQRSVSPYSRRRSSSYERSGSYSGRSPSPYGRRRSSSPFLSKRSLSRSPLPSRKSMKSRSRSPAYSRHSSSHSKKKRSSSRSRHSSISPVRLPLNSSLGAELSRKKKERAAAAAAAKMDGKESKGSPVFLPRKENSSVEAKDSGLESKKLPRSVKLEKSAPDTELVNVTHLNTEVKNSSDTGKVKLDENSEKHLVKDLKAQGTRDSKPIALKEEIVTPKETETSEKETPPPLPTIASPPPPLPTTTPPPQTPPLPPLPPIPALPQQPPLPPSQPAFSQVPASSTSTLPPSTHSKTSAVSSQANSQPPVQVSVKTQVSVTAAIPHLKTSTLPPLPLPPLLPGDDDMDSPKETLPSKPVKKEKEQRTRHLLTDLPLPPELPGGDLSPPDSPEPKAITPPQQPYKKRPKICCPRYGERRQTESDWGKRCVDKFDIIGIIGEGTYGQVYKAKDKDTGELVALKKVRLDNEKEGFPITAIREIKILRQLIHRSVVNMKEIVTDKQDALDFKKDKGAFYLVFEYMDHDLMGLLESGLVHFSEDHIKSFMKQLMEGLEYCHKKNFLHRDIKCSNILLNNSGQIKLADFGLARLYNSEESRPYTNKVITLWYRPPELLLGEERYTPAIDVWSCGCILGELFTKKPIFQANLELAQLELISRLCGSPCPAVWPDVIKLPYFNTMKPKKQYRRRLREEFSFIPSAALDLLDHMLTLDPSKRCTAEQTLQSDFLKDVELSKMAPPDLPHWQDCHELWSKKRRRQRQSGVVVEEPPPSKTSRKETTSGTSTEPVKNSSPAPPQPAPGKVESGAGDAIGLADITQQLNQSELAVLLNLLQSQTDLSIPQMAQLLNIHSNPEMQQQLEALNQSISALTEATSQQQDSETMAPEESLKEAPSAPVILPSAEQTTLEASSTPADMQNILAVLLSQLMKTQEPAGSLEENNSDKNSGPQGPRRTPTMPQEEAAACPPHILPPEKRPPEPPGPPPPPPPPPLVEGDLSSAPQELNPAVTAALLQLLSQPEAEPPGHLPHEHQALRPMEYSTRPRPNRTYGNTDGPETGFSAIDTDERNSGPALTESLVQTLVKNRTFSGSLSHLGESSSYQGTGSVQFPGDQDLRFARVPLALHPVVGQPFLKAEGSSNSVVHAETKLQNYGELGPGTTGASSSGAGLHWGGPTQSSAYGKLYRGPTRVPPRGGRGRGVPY
T2 sequence (O75909 whole entry partner): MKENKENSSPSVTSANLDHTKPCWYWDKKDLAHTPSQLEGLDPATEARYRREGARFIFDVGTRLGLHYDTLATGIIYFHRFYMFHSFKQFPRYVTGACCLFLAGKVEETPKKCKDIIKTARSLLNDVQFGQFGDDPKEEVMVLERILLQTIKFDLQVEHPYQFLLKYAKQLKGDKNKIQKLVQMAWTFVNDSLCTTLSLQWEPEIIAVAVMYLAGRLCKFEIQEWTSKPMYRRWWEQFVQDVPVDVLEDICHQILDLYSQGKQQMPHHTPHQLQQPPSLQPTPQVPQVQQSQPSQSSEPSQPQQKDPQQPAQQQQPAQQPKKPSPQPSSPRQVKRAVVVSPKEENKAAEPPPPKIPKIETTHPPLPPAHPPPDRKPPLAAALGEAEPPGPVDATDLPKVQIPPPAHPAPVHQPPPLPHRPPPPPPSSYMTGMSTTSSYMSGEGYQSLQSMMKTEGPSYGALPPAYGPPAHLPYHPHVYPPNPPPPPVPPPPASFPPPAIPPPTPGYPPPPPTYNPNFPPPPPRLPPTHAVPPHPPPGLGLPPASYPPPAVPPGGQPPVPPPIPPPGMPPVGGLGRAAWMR
Experimental: 5. CDK12 protein level: Protein Simple (CDK12, CAL-120), Westernblot (CDK9, 12, 13)
CAL-120 human breast cancer cells (DSMZ ACC 459) were seeded at 300,000 cells/well in 6-well plates containing 2 mL of growth medium (DMEM, 10%FCS, glutamine) and incubated for 24 h at 37° C. in an humidified incubator. Test compounds were added at various concentrations, control wells received solvent (DMSO), and the plates were incubated for another 18h at 37° C. Cells were washed 2 times with PBS and lysed in 75 microL lysis buffer (MSD-Puffer (MSD, #R6OTX-2), +1% SDS+PhosSTOP (Roche #04906837001)+complete mini (Roche #04693159001)) by scraping. The lysates were pushed 2 times through Qiashedders followed by centrifugation at 14,000 rpm for 30-50 sec. The supernatant was stored at -20° C. […] CDK12 and HSP90 (loading control) were detected using anti-human CDK12 antibody (Cell Signaling Technologies (CST) #11793) at 1:25 dilution and anti-human HSP90 antibody (CST #4877) at 1:5,000 dilution. CDK12 and HSP90 peak areas were determined using Protein Simple Compass software. Ratio of CDK12/HSP90 peak areas were calculated for each sample, and DC50 values (degrading concentration to achieve 50% reduction relative to vehicle treated control) were determined by means of a 4 parameter fit.

T1 sequence (Q9NYV4 with tags, fused parts or gaps): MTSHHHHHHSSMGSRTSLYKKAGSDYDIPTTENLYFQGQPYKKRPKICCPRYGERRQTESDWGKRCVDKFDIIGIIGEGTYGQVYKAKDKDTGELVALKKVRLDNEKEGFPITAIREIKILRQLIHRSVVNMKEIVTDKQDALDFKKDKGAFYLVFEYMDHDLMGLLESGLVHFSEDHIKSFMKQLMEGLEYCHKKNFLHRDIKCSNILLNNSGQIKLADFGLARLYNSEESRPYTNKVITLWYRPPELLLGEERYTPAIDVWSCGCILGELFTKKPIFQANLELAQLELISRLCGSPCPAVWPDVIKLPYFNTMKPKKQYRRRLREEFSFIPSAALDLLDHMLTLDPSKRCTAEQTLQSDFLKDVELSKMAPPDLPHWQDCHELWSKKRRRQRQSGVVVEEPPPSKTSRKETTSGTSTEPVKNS
T1 sequence (O75909 with tags, fused parts or gaps partner limits assumed): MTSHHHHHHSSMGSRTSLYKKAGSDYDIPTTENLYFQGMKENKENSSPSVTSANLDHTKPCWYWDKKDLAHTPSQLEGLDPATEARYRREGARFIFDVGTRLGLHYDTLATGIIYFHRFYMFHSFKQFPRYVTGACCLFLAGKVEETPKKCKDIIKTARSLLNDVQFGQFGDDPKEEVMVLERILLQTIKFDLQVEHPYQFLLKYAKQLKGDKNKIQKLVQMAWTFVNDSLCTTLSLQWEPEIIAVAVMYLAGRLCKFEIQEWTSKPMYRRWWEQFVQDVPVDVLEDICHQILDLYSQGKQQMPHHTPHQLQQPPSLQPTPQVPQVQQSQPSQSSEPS

SMILES | IC50 (CDK12/CyclinK) [µM] | DC50 (CDK12) [nM] | IC50 [1] [nM]
CN1CCC(n2nc(NCc3nc4cc(Cl)ccc4[nH]3)c3ncc(C4CC4)nc32)CC1 [Example 22, N-[(5-chloro-1H-benzimidazol-2-yl)methyl]-6-cyclopropyl-1-(1-methylpiperidin-4-yl)-1H-pyrazolo[3,4-b]pyrazin-3-amine] | > 20 | – | 9.36
Fc1cccc2[nH]c(CNc3nn(C4CCOCC4)c4nc(C5CC5)cnc34)nc12 [Example 23, 6-cyclopropyl-N-[(4-fluoro-1H-benzimidazol-2-yl)methyl]-1-(oxan-4-yl)-1H-pyrazolo[3,4-b]pyrazin-3-amine] | 12.3 | – | 30.9
c1ccc2[nH]c(CNc3nn(C4CCOCC4)c4nc(C5CC5)cnc34)nc2c1 [Example 16, N-[(1H-benzimidazol-2-yl)methyl]-6-cyclopropyl-1-(oxan-4-yl)-1H-pyrazolo[3,4-b]pyrazin-3-amine] | > 20 | 31.1 | 12.9

Second part, led by results:

IC50 (CDK12/CyclinK) [µM] | DC50 (CDK12) [nM] | SMILES | IC50 [1] [nM]
> 20 | – | c1ccc2[nH]c(CNc3nn(C4CCCC4)c4nc(C5CC5)cnc34)nc2c1 [Example 39, N-[(1H-benzimidazol-2-yl)methyl]-1-cyclopentyl-6-cyclopropyl-1H-pyrazolo[3,4-b]pyrazin-3-amine] | 107
> 20 | – | CN1CCCC(n2nc(NCc3nc4ccccc4[nH]3)c3ncc(C4CC4)nc32)CC1 (single isomer, unassigned) [Example 37, (+) or (−)-N-[(1H-benzimidazol-2-yl)methyl]-6-cyclopropyl-1-[(4R*)-1-methylazepan-4-yl]-1H-pyrazolo[3,4-b]pyrazin-3-amine] | 11.3
> 20 | – | CN1CCCC(n2nc(NCc3nc4ccccc4[nH]3)c3ncc(C4CC4)nc32)CC1 (racemic) [Example 34, (±)-N-[(1H-benzimidazol-2-yl)methyl]-6-cyclopropyl-1-(1-methylazepan-4-yl)-1H-pyrazolo[3,4-b]pyrazin-3-amine] | 22.5
